Experiments:
Assay in all cases: relative viability (nuclei count vs DMSO), 5 days (fraction); higher = more cells survive
Venetoclax + Bortezomib = compound: CC1(C)CCC(CN2CCN(c3ccc(C(=O)NS(=O)(=O)c4ccc(NCC5CCOCC5)c([N+](=O)[O-])c4)c(Oc4cnc5[nH]ccc5c4)c3)CC2)=C(c2ccc(Cl)cc2)C1 [Venetoclax] + CC(C)C[C@H](NC(=O)[C@H](Cc1ccccc1)NC(=O)c1cnccn1)B(O)O [Bortezomib] (partner 0.002 µM)
Procedure, shortened: (§1)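 Relative viability equals treated-well nuclei counts divided by vehicle-well nuclei counts. Counts came from 4× images of lung cancer cell lines grown in 1536-well plates for 5 days after pin-tool dosing on the day after seeding. Dosing used one drug alone or a fixed anchor-drug dose plus five library-drug doses (not always all listed) in √10 steps, and values are medians of duplicate plates.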

Venetoclax + Dasatinib = compound: CC1(C)CCC(CN2CCN(c3ccc(C(=O)NS(=O)(=O)c4ccc(NCC5CCOCC5)c([N+](=O)[O-])c4)c(Oc4cnc5[nH]ccc5c4)c3)CC2)=C(c2ccc(Cl)cc2)C1 [Venetoclax] + Cc1nc(Nc2ncc(C(=O)Nc3c(C)cccc3Cl)s2)cc(N2CCN(CCO)CC2)n1 [Dasatinib] (partner 0.075 µM)
Procedure, shortened: as §1

Selumetinib + Trametinib = compound: Cn1cnc2c(F)c(Nc3ccc(Br)cc3Cl)c(C(=O)NOCCO)cc21 [Selumetinib] + CC(=O)Nc1cccc(-n2c(=O)n(C3CC3)c(=O)c3c(Nc4ccc(I)cc4F)n(C)c(=O)c(C)c32)c1 [Trametinib] (partner 0.02 µM)
Procedure, shortened: as §1

Selumetinib + Foretinib = compound: Cn1cnc2c(F)c(Nc3ccc(Br)cc3Cl)c(C(=O)NOCCO)cc21 [Selumetinib] + COc1cc2c(Oc3ccc(NC(=O)C4(C(=O)Nc5ccc(F)cc5)CC4)cc3F)ccnc2cc1OCCCN1CCOCC1 [Foretinib] (partner 0.25 µM)
Procedure, shortened: as §1

NCI-H2009
relative viability (Venetoclax + Bortezomib; first compound 0.01 µM): 1.09
relative viability (Venetoclax + Bortezomib; first compound 0.03162 µM): 0.951
relative viability (Venetoclax + Bortezomib; first compound 0.1 µM): 1.03
relative viability (Venetoclax + Bortezomib; first compound 0.3162 µM): 0.991
relative viability (Venetoclax + Bortezomib; first compound 1 µM): 1.02
relative viability (Venetoclax + Dasatinib; first compound 0.01 µM): 0.37
relative viability (Venetoclax + Dasatinib; first compound 0.03162 µM): 0.315
relative viability (Venetoclax + Dasatinib; first compound 0.1 µM): 0.283
relative viability (Venetoclax + Dasatinib; first compound 0.3162 µM): 0.302
relative viability (Venetoclax + Dasatinib; first compound 1 µM): 0.266
relative viability (Selumetinib + Trametinib; first compound 0.02 µM): 0.285
relative viability (Selumetinib + Trametinib; first compound 0.06325 µM): 0.273
relative viability (Selumetinib + Trametinib; first compound 0.2 µM): 0.29
relative viability (Selumetinib + Trametinib; first compound 0.6325 µM): 0.257
relative viability (Selumetinib + Foretinib; first compound 0.02 µM): 0.965
relative viability (Selumetinib + Foretinib; first compound 0.06325 µM): 0.87
relative viability (Selumetinib + Foretinib; first compound 0.2 µM): 0.511
relative viability (Selumetinib + Foretinib; first compound 0.6325 µM): 0.337

CAL-12T
relative viability (Venetoclax + Bortezomib; first compound 0.01 µM): 0.976
relative viability (Venetoclax + Bortezomib; first compound 0.03162 µM): 1.14
relative viability (Venetoclax + Bortezomib; first compound 0.1 µM): 0.954
relative viability (Venetoclax + Bortezomib; first compound 0.3162 µM): 0.901
relative viability (Venetoclax + Bortezomib; first compound 1 µM): 0.877
relative viability (Venetoclax + Dasatinib; first compound 0.01 µM): 0.286
relative viability (Venetoclax + Dasatinib; first compound 0.03162 µM): 0.476
relative viability (Venetoclax + Dasatinib; first compound 0.1 µM): 0.381
relative viability (Venetoclax + Dasatinib; first compound 0.3162 µM): 0.398
relative viability (Venetoclax + Dasatinib; first compound 1 µM): 0.314
relative viability (Selumetinib + Trametinib; first compound 0.02 µM): 0.282
relative viability (Selumetinib + Trametinib; first compound 0.06325 µM): 0.343
relative viability (Selumetinib + Trametinib; first compound 0.2 µM): 0.285
relative viability (Selumetinib + Trametinib; first compound 0.6325 µM): 0.298
relative viability (Selumetinib + Foretinib; first compound 0.02 µM): 1.05
relative viability (Selumetinib + Foretinib; first compound 0.06325 µM): 1.04
relative viability (Selumetinib + Foretinib; first compound 0.2 µM): 1.14
relative viability (Selumetinib + Foretinib; first compound 0.6325 µM): 0.839

NCI-H1623
relative viability (Venetoclax + Dasatinib; first compound 0.01 µM): 0.565
relative viability (Venetoclax + Dasatinib; first compound 0.03162 µM): 0.595
relative viability (Venetoclax + Dasatinib; first compound 0.1 µM): 0.534
relative viability (Venetoclax + Dasatinib; first compound 0.3162 µM): 0.515
relative viability (Venetoclax + Dasatinib; first compound 1 µM): 0.508
relative viability (Selumetinib + Foretinib; first compound 0.02 µM): 0.729
relative viability (Selumetinib + Foretinib; first compound 0.06325 µM): 0.679
relative viability (Selumetinib + Foretinib; first compound 0.2 µM): 0.614
relative viability (Selumetinib + Foretinib; first compound 0.6325 µM): 0.632

HCC-78
relative viability (Venetoclax + Bortezomib; first compound 0.01 µM): 0.523
relative viability (Venetoclax + Bortezomib; first compound 0.03162 µM): 0.583
relative viability (Venetoclax + Bortezomib; first compound 0.1 µM): 0.482
relative viability (Venetoclax + Bortezomib; first compound 0.3162 µM): 0.525
relative viability (Venetoclax + Bortezomib; first compound 1 µM): 0.477
relative viability (Venetoclax + Dasatinib; first compound 0.01 µM): 0.442
relative viability (Venetoclax + Dasatinib; first compound 0.03162 µM): 0.441
relative viability (Venetoclax + Dasatinib; first compound 0.1 µM): 0.409
relative viability (Venetoclax + Dasatinib; first compound 0.3162 µM): 0.323
relative viability (Venetoclax + Dasatinib; first compound 1 µM): 0.368
relative viability (Selumetinib + Trametinib; first compound 0.02 µM): 0.785
relative viability (Selumetinib + Trametinib; first compound 0.06325 µM): 0.643
relative viability (Selumetinib + Trametinib; first compound 0.2 µM): 0.792
relative viability (Selumetinib + Trametinib; first compound 0.6325 µM): 0.698
relative viability (Selumetinib + Foretinib; first compound 0.02 µM): 0.516
relative viability (Selumetinib + Foretinib; first compound 0.06325 µM): 0.435
relative viability (Selumetinib + Foretinib; first compound 0.2 µM): 0.401
relative viability (Selumetinib + Foretinib; first compound 0.6325 µM): 0.449

EKVX
relative viability (Venetoclax + Bortezomib; first compound 0.01 µM): 1.04
relative viability (Venetoclax + Bortezomib; first compound 0.03162 µM): 1.05
relative viability (Venetoclax + Bortezomib; first compound 0.1 µM): 1.04
relative viability (Venetoclax + Bortezomib; first compound 0.3162 µM): 1.14
relative viability (Venetoclax + Bortezomib; first compound 1 µM): 0.842
relative viability (Venetoclax + Dasatinib; first compound 0.01 µM): 0.576
relative viability (Venetoclax + Dasatinib; first compound 0.03162 µM): 0.641
relative viability (Venetoclax + Dasatinib; first compound 0.1 µM): 0.437
relative viability (Venetoclax + Dasatinib; first compound 0.3162 µM): 0.567
relative viability (Venetoclax + Dasatinib; first compound 1 µM): 0.47
relative viability (Selumetinib + Trametinib; first compound 0.02 µM): 0.308
relative viability (Selumetinib + Trametinib; first compound 0.06325 µM): 0.325
relative viability (Selumetinib + Trametinib; first compound 0.2 µM): 0.344
relative viability (Selumetinib + Trametinib; first compound 0.6325 µM): 0.32
relative viability (Selumetinib + Foretinib; first compound 0.02 µM): 0.724
relative viability (Selumetinib + Foretinib; first compound 0.06325 µM): 0.675
relative viability (Selumetinib + Foretinib; first compound 0.2 µM): 0.517
relative viability (Selumetinib + Foretinib; first compound 0.6325 µM): 0.568

NCI-H1703
relative viability (Venetoclax + Bortezomib; first compound 0.01 µM): 0.306
relative viability (Venetoclax + Bortezomib; first compound 0.03162 µM): 0.313
relative viability (Venetoclax + Bortezomib; first compound 0.1 µM): 0.21
relative viability (Venetoclax + Bortezomib; first compound 0.3162 µM): 0.397
relative viability (Venetoclax + Bortezomib; first compound 1 µM): 0.374
relative viability (Selumetinib + Foretinib; first compound 0.02 µM): 0.438
relative viability (Selumetinib + Foretinib; first compound 0.06325 µM): 0.318
relative viability (Selumetinib + Foretinib; first compound 0.2 µM): 0.369
relative viability (Selumetinib + Foretinib; first compound 0.6325 µM): 0.32

NCI-H1944
relative viability (Venetoclax + Dasatinib; first compound 0.01 µM): 0.283
relative viability (Venetoclax + Dasatinib; first compound 0.03162 µM): 0.235
relative viability (Venetoclax + Dasatinib; first compound 0.1 µM): 0.201
relative viability (Venetoclax + Dasatinib; first compound 0.3162 µM): 0.222
relative viability (Venetoclax + Dasatinib; first compound 1 µM): 0.227
relative viability (Selumetinib + Trametinib; first compound 0.02 µM): 0.442
relative viability (Selumetinib + Trametinib; first compound 0.06325 µM): 0.398
relative viability (Selumetinib + Trametinib; first compound 0.2 µM): 0.406
relative viability (Selumetinib + Trametinib; first compound 0.6325 µM): 0.389
relative viability (Selumetinib + Foretinib; first compound 0.02 µM): 0.898
relative viability (Selumetinib + Foretinib; first compound 0.06325 µM): 0.796
relative viability (Selumetinib + Foretinib; first compound 0.2 µM): 0.69
relative viability (Selumetinib + Foretinib; first compound 0.6325 µM): 0.536

NCI-H1755
relative viability (Venetoclax + Bortezomib; first compound 0.01 µM): 0.993
relative viability (Venetoclax + Bortezomib; first compound 0.03162 µM): 1.01
relative viability (Venetoclax + Bortezomib; first compound 0.1 µM): 0.911
relative viability (Venetoclax + Bortezomib; first compound 0.3162 µM): 0.965
relative viability (Venetoclax + Bortezomib; first compound 1 µM): 0.943
relative viability (Venetoclax + Dasatinib; first compound 0.01 µM): 0.398
relative viability (Venetoclax + Dasatinib; first compound 0.03162 µM): 0.404
relative viability (Venetoclax + Dasatinib; first compound 0.1 µM): 0.43
relative viability (Venetoclax + Dasatinib; first compound 0.3162 µM): 0.402
relative viability (Venetoclax + Dasatinib; first compound 1 µM): 0.378
relative viability (Selumetinib + Trametinib; first compound 0.02 µM): 0.78
relative viability (Selumetinib + Trametinib; first compound 0.06325 µM): 0.753
relative viability (Selumetinib + Trametinib; first compound 0.2 µM): 0.778
relative viability (Selumetinib + Trametinib; first compound 0.6325 µM): 0.752
relative viability (Selumetinib + Foretinib; first compound 0.02 µM): 0.874
relative viability (Selumetinib + Foretinib; first compound 0.06325 µM): 0.807
relative viability (Selumetinib + Foretinib; first compound 0.2 µM): 0.824
relative viability (Selumetinib + Foretinib; first compound 0.6325 µM): 0.847

Calu-6
relative viability (Venetoclax + Bortezomib; first compound 0.01 µM): 0.981
relative viability (Venetoclax + Bortezomib; first compound 0.03162 µM): 0.972
relative viability (Venetoclax + Bortezomib; first compound 0.1 µM): 1.02
relative viability (Venetoclax + Bortezomib; first compound 0.3162 µM): 1.08
relative viability (Venetoclax + Bortezomib; first compound 1 µM): 1.05
relative viability (Selumetinib + Foretinib; first compound 0.02 µM): 0.817
relative viability (Selumetinib + Foretinib; first compound 0.06325 µM): 0.702
relative viability (Selumetinib + Foretinib; first compound 0.2 µM): 0.515
relative viability (Selumetinib + Foretinib; first compound 0.6325 µM): 0.383

EBC-1
relative viability (Venetoclax + Bortezomib; first compound 0.01 µM): 0.409
relative viability (Venetoclax + Bortezomib; first compound 0.03162 µM): 0.604
relative viability (Venetoclax + Bortezomib; first compound 0.1 µM): 0.609
relative viability (Venetoclax + Bortezomib; first compound 0.3162 µM): 0.511
relative viability (Venetoclax + Bortezomib; first compound 1 µM): 0.481
relative viability (Selumetinib + Foretinib; first compound 0.02 µM): 0.0932
relative viability (Selumetinib + Foretinib; first compound 0.06325 µM): 0.0928
relative viability (Selumetinib + Foretinib; first compound 0.2 µM): 0.114
relative viability (Selumetinib + Foretinib; first compound 0.6325 µM): 0.109

EPLC-272H
relative viability (Venetoclax + Bortezomib; first compound 0.03162 µM): 0.957
relative viability (Venetoclax + Bortezomib; first compound 0.1 µM): 0.852
relative viability (Venetoclax + Bortezomib; first compound 0.3162 µM): 0.872
relative viability (Venetoclax + Bortezomib; first compound 1 µM): 0.947
relative viability (Venetoclax + Dasatinib; first compound 0.01 µM): 0.399
relative viability (Venetoclax + Dasatinib; first compound 0.03162 µM): 0.379
relative viability (Venetoclax + Dasatinib; first compound 0.1 µM): 0.352
relative viability (Venetoclax + Dasatinib; first compound 0.3162 µM): 0.36
relative viability (Venetoclax + Dasatinib; first compound 1 µM): 0.346
relative viability (Selumetinib + Trametinib; first compound 0.02 µM): 0.275
relative viability (Selumetinib + Trametinib; first compound 0.06325 µM): 0.277
relative viability (Selumetinib + Trametinib; first compound 0.2 µM): 0.263
relative viability (Selumetinib + Trametinib; first compound 0.6325 µM): 0.259
relative viability (Selumetinib + Foretinib; first compound 0.02 µM): 0.593
relative viability (Selumetinib + Foretinib; first compound 0.06325 µM): 0.467
relative viability (Selumetinib + Foretinib; first compound 0.2 µM): 0.367
relative viability (Selumetinib + Foretinib; first compound 0.6325 µM): 0.333

— the supplement of paper PMC10307832
